Laboratory results reported in PubChem BioAssay (NCI).
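How tested: cells in 96-well plates exposed to compound for 48 hours at five concentrations. GI50 = concentration required for 50% inhibition of growth. TGI denotes the concentration required for complete inhibition of growth.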

What was measured:
Experiment in all cases: NCI anticancer screen, dose series, 48 h
MOLT-4 leukemia = test system: MOLT-4 leukemia
M14 melanoma = test system: M14 melanoma
RPMI-8226 leukemia = test system: RPMI-8226 leukemia
NCI/ADR-RES ovarian = test system: NCI/ADR-RES ovarian
SK-MEL-5 melanoma = test system: SK-MEL-5 melanoma
OVCAR-8 ovarian = test system: OVCAR-8 ovarian
HOP-62 NSCLC = test system: HOP-62 NSCLC
IGROV1 ovarian = test system: IGROV1 ovarian
HT29 colon = test system: HT29 colon
A498 renal = test system: A498 renal

SMILES | TGI (MOLT-4 leukemia) [µM] | TGI (M14 melanoma) [µM] | TGI (RPMI-8226 leukemia) [µM] | TGI (NCI/ADR-RES ovarian) [µM] | TGI (SK-MEL-5 melanoma) [µM] | TGI (OVCAR-8 ovarian) [µM] | TGI (HOP-62 NSCLC) [µM] | TGI (IGROV1 ovarian) [µM] | GI50 (MOLT-4 leukemia) [µM] | GI50 (M14 melanoma) [µM] | GI50 (RPMI-8226 leukemia) [µM] | GI50 (SK-MEL-5 melanoma) [µM] | GI50 (HT29 colon) [µM] | TGI (HT29 colon) [µM] | GI50 (OVCAR-8 ovarian) [µM] | GI50 (HOP-62 NSCLC) [µM] | GI50 (IGROV1 ovarian) [µM] | TGI (A498 renal) [µM] | GI50 (NCI/ADR-RES ovarian) [µM] | GI50 (A498 renal) [µM]
CC(=O)On1c(-c2ccccc2-c2nc3ccccc3n2OC(C)=O)nc2ccccc21 | 71.1 | > 100 | 71 | > 100 | 13.7 | > 100 | > 100 | > 100 | – | – | – | – | – | – | – | – | – | – | – | –
COc1ccc(OC)c(-c2cc(-c3ccc(Cl)cc3)nn2-c2ccc(S(=O)(=O)NC(C)=O)cc2)c1 | 27.8 | 8.21 | 7.5 | – | 15.5 | 84.3 | 22.2 | > 100 | 5.62 | 3.04 | 4.75 | 2.07 | 5.54 | > 100 | 21 | 10.5 | 37.2 | – | – | –
O=C1OC(O)C(Oc2c(Cl)cccc2Cl)=C1Cl (stereo not given) | 85.7 | 33.2 | 57 | – | 27.5 | 37.9 | 34.7 | 46.2 | – | – | – | – | – | 34.3 | – | – | – | 51.1 | – | –
CCn1c(-c2cc3ccccc3cc2O)nn(C(=O)c2c(Cl)cccc2Cl)c1=S | > 50 | 21.9 | 46.1 | > 50 | 19.7 | > 50 | > 50 | 16.6 | 34.6 | 7.11 | 13.3 | 10 | > 50 | > 50 | > 50 | 24.2 | 6.63 | – | > 50 | –
COC(=O)C1[C@H](c2cc(OC)c(OC)c(OC)c2)OC(=O)C1(C(=O)OC)C(=O)c1ccc2c(c1)OCO2 (stereo not given in full) | > 100 | > 100 | > 100 | – | > 100 | > 100 | > 100 | > 100 | – | – | – | – | – | > 100 | – | – | – | > 100 | – | –
CCOc1cccc2ccc[n+](CC)c12 | > 100 | > 100 | > 100 | – | > 100 | > 100 | > 100 | > 100 | – | – | – | – | – | > 100 | – | – | – | – | – | –
COc1ccc(/C=N\Nc2ccc([N+](=O)[O-])cn2)cc1OC | > 100 | > 100 | – | > 100 | > 100 | > 100 | > 100 | – | > 100 | > 100 | – | > 100 | > 100 | > 100 | > 100 | 10.5 | – | 59.6 | > 100 | 3.43
CC(C)(C)C1CCC2c3c([nH]c4ccccc34)C3C(=O)N(c4ccccc4)C(=O)C3C2C1 (stereo not given) | 14 | 19.7 | 28.4 | – | – | 17.8 | – | 39.4 | – | – | – | – | – | > 100 | – | – | – | 5.99 | – | –
Cn1c(=O)c2nc(-c3ccc(Cl)cc3)oc2n(C)c1=O | > 100 | > 100 | > 100 | – | > 100 | > 100 | – | – | – | – | – | – | – | > 100 | – | – | – | > 100 | – | –
O=c1c2cccc3cccc(c4n1CCN=4)c32 | > 100 | > 100 | > 100 | – | > 100 | > 100 | > 100 | > 100 | – | – | – | – | – | > 100 | – | – | – | > 100 | – | –
CCOC(=N)/C(=C1\OC(N)=C(c2ccc(Cl)cc2)C1=O)c1ccc(Cl)cc1 | 52.1 | 31.6 | 47.6 | – | – | 28.7 | 43.6 | > 100 | – | – | – | – | – | 52.6 | – | – | – | 32.5 | – | –
N#CC1=C(N)NC(N2CCOCC2)=NC12Nc1ccccc1N2 | > 100 | > 100 | > 100 | 87 | 32 | > 100 | 32.5 | 23.8 | 62.5 | > 100 | 24.2 | 15 | 32.6 | > 100 | 37.5 | 6.09 | 2.15 | – | 28.3 | –
C[N+](C)(C)CC(=O)N/N=C(\C(=O)NC1=C(Cl)C(=O)c2ccccc2C1=O)C(C#N)c1csc(-c2ccc([N+](=O)[O-])cc2)n1 (stereo not given) | > 100 | > 100 | > 100 | – | > 100 | > 100 | > 100 | > 100 | – | – | – | – | – | > 100 | – | – | – | > 100 | – | –
O=S1Nc2c(Cl)cc(Cl)c3c(Cl)cc(Cl)c(c23)N1 | > 100 | > 100 | > 100 | – | > 100 | > 100 | – | > 100 | – | – | – | – | – | > 100 | – | – | – | 74.4 | – | –
CCCN(CCCC(NC(C)=O)C(=O)NCc1ccccc1)C(=O)NCCCl (stereo not given) | > 100 | > 100 | > 100 | – | – | > 100 | > 100 | > 100 | – | – | – | – | – | > 100 | – | – | – | – | – | –
CSc1n[n+]2c(s1)SCCC2 | > 100 | > 100 | – | – | > 100 | > 100 | > 100 | > 100 | – | – | – | – | – | > 100 | – | – | – | – | – | –
CC(=O)OC1CC2C(C)(C)C(=O)C=C[C@]2(C)C2CCC3(C)C(=CC(=O)C3c3ccoc3)[C@]12C (stereo not given in full) | 34 | 61.7 | 36.1 | – | 26.4 | 41 | 31.1 | 57.9 | – | – | – | – | – | 32.1 | – | – | – | 33.9 | – | –
CC[N+]1(C)CCC(O)(c2ccc(OC)cc2)C(C(=O)c2ccc(OC)cc2)C1 (stereo not given) | > 21.1 | 21.3 | 5.92 | – | 29.5 | 59.4 | 34.1 | 41.2 | – | – | – | – | – | 15.7 | – | – | – | 32.6 | – | –
Cn1c2ccc(Br)cc2c2c3c(c4c5ccccc5[nH]c4c21)C(=O)N(O)C3=O | 0.312 | 0.307 | 0.672 | > 100 | 0.266 | 0.683 | 0.653 | 1.07 | 0.046 | 0.0877 | 0.151 | 0.128 | 0.23 | 0.658 | 0.149 | 0.131 | 0.262 | – | 0.357 | –
